Measurements from PubChem BioAssay (NCI).
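These data come from cells grown in 96-well plates and exposed to compound for 48 hours at five concentrations. GI50 marks 50% less growth. At the TGI there is no net growth.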

Columns and labels:
Test in all cases: inhibition of tumour cell growth, NCI panel, 48 h
RXF 393 renal = test system: RXF 393 renal
HS 578T breast = test system: HS 578T breast
NCI/ADR-RES ovarian = test system: NCI/ADR-RES ovarian
HCT-15 colon = test system: HCT-15 colon
KM12 colon = test system: KM12 colon
MDA-N = test system: MDA-N
OVCAR-3 ovarian = test system: OVCAR-3 ovarian
SF-295 CNS = test system: SF-295 CNS
IGROV1 ovarian = test system: IGROV1 ovarian
MCF7 breast = test system: MCF7 breast
SK-MEL-2 melanoma = test system: SK-MEL-2 melanoma
M14 melanoma = test system: M14 melanoma
CAKI-1 renal = test system: CAKI-1 renal
EKVX NSCLC = test system: EKVX NSCLC
BT-549 breast = test system: BT-549 breast
SNB-19 CNS = test system: SNB-19 CNS
MALME-3M melanoma = test system: MALME-3M melanoma

Compound | TGI (RXF 393 renal) | TGI (HS 578T breast) | TGI (NCI/ADR-RES ovarian) | TGI (HCT-15 colon) | TGI (KM12 colon) | TGI (MDA-N) | TGI (OVCAR-3 ovarian) | TGI (SF-295 CNS) | TGI (IGROV1 ovarian) | TGI (MCF7 breast) | TGI (SK-MEL-2 melanoma) | TGI (M14 melanoma) | TGI (CAKI-1 renal) | TGI (EKVX NSCLC) | TGI (BT-549 breast) | TGI (SNB-19 CNS) | TGI (MALME-3M melanoma) | GI50 (MALME-3M melanoma)
CCOC(=O)c1sc2nc(SC)nc3c2c1NCN3c1ccc2c(c1)OCCCO2 | 35.6 µM | 37 µM | > 100 µM | > 100 µM | > 100 µM | > 100 µM | 93.9 µM | 5.1 µM | > 100 µM | > 100 µM | > 100 µM | > 100 µM | > 100 µM | > 100 µM | > 100 µM | > 100 µM | > 100 µM | –
Cc1ccc2cc3c(ccc4ccccc43)c3c2c1CC3 | > 100 µM | > 100 µM | > 100 µM | > 100 µM | > 100 µM | > 100 µM | > 100 µM | > 100 µM | > 100 µM | > 18.3 µM | > 100 µM | > 100 µM | > 100 µM | > 100 µM | > 100 µM | > 100 µM | > 100 µM | > 100 µM
CCOC(=O)c1cc(C2CCN(CC(C)CC)C2=S)c(-c2cc(C)no2)[nH]1 (stereo not drawn) | > 100 µM | > 100 µM | > 100 µM | > 100 µM | > 100 µM | > 100 µM | > 100 µM | > 100 µM | > 100 µM | > 100 µM | > 100 µM | > 100 µM | > 100 µM | > 100 µM | > 100 µM | > 100 µM | > 100 µM | –
Cc1cc(C)nc(NC(=S)Nc2ccccc2Cl)c1 | > 100 µM | > 100 µM | > 100 µM | > 100 µM | > 100 µM | > 100 µM | > 100 µM | > 100 µM | > 100 µM | > 100 µM | > 100 µM | > 100 µM | > 100 µM | > 100 µM | > 100 µM | > 100 µM | > 100 µM | –
CC1=C(O)C(=O)C[C@]2(C)[C@H]3CC=C4[C@@H]5CC(C)(C)CC[C@@H]5C(=O)[C@H](O)[C@@]4(C)[C@]3(C)CC[C@@H]12 | 37.9 µM | > 50 µM | > 50 µM | > 50 µM | > 50 µM | > 50 µM | > 50 µM | > 50 µM | > 50 µM | > 50 µM | > 50 µM | > 50 µM | > 50 µM | > 50 µM | > 50 µM | > 50 µM | > 50 µM | –
CCCCCCCCCCCCCCCCCCNc1ccn(C2OC(CO)C(O)C2O)c(=O)n1 (stereo not drawn) | > 100 µM | > 100 µM | > 100 µM | > 100 µM | > 100 µM | > 100 µM | > 100 µM | > 100 µM | > 92.2 µM | > 100 µM | > 100 µM | > 100 µM | > 100 µM | > 100 µM | > 100 µM | > 100 µM | > 100 µM | –
COc1ccc(Cc2c(N)[nH]c(=O)n(C)c2=O)cc1 | > 100 µM | > 100 µM | > 100 µM | > 100 µM | > 100 µM | > 100 µM | > 100 µM | > 100 µM | > 100 µM | 22.2 µM | > 100 µM | > 100 µM | > 100 µM | > 100 µM | > 100 µM | > 100 µM | > 100 µM | –
COC(=O)C1CC=C(SC(=O)c2ccccc2)N1C(=O)c1ccccc1 (stereo not drawn) | > 100 µM | > 100 µM | > 100 µM | > 100 µM | > 100 µM | > 100 µM | > 100 µM | > 100 µM | > 100 µM | > 100 µM | > 100 µM | > 100 µM | > 100 µM | > 100 µM | > 100 µM | > 100 µM | > 100 µM | –
Cc1nn(C(=O)c2ccncc2)c2c1C(c1ccc(Cl)cc1)SC(N)=N2 (stereo not drawn) | > 10 µM | > 10 µM | > 10 µM | > 10 µM | > 10 µM | > 10 µM | > 10 µM | > 10 µM | > 10 µM | > 10 µM | > 10 µM | > 10 µM | > 10 µM | > 10 µM | > 10 µM | > 10 µM | > 10 µM | –
C=CCOc1ccc(/C(N=Nc2ccccc2)=N/NC(=O)c2ccccc2)cc1OC | > 100 µM | > 100 µM | > 100 µM | > 100 µM | > 100 µM | > 100 µM | > 100 µM | > 100 µM | > 100 µM | > 100 µM | > 100 µM | > 100 µM | > 100 µM | > 100 µM | > 100 µM | > 100 µM | > 100 µM | –
CCCCNc1c(CN)cnc2cc(Cl)ccc12 | 29.5 µM | 37.2 µM | 32 µM | 33.1 µM | 36.7 µM | 39.3 µM | 32.3 µM | 29.8 µM | 34.4 µM | 27.6 µM | 33.3 µM | 36.6 µM | 65.7 µM | 17.1 µM | 31.8 µM | 51 µM | 34 µM | –
